Results taken from the supplement of paper PMC10307832.

Columns and labels:
Assay in all cases: relative viability (nuclei count vs DMSO), 5 days (fraction); higher = more cells survive
[1] = compound: CN(C)C(=N)NC(=N)N [Metformin] + CCNC(=O)c1noc(-c2cc(C(C)C)c(O)cc2O)c1-c1ccc(CN2CCOCC2)cc1 [Luminespib] (partner 0.01 µM)
Procedure, shortened: (§1)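 Lung cancer cell lines, seeded in 1536-well plates, were treated the following day by pin tool with a single drug or with five library-drug doses (not always all listed) in √10 steps on top of a fixed anchor-drug dose. Cells were fixed and nuclei stained in one step after 5 days, and nuclei were counted. Relative viability is the nuclei count for treated wells divided by that for vehicle wells, reported as medians of duplicate plates.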

[2] = compound: CN(C)C(=N)NC(=N)N [Metformin] + COc1cccc2cc(-c3nc([C@H]4CC[C@H](C(=O)O)CC4)n4ncnc(N)c34)[nH]c12 [OSI-027] (partner 0.5 µM)
Procedure, shortened: as §1

[3] = compound: N#CC1(c2ccc(NC(=O)c3cccnc3NCc3ccncc3)cc2)CCCC1 [Apatinib] + Nc1nc2[nH]cc(CCc3ccc(C(=O)N[C@@H](CCC(=O)O)C(=O)O)cc3)c2c(=O)[nH]1 [Pemetrexed] (partner 0.2 µM)
Procedure, shortened: as §1

[4] = compound: N#CC1(c2ccc(NC(=O)c3cccnc3NCc3ccncc3)cc2)CCCC1 [Apatinib] + O=C(c1cc(Cc2n[nH]c(=O)c3ccccc23)ccc1F)N1CCN(C(=O)C2CC2)CC1 [Olaparib] (partner 8 µM)
Procedure, shortened: as §1

Q: How did the relative viability ([1]; first compound 10 µM) turn out when NCI-H460 was run?
A: Its relative viability is 0.048.

Q: What about the relative viability ([1]; first compound 31.62 µM) of the same cell line?
A: Its relative viability is 0.0359.

Q: And the relative viability ([1]; first compound 100 µM)?
A: The relative viability was 0.0322.

Q: What about the relative viability ([1]; first compound 316.23 µM) of the same cell line?
A: The relative viability was 0.0306.

Q: What about the relative viability ([1]; first compound 1000 µM) of the same cell line?
A: The relative viability was 0.0333.

Q: What about the relative viability ([2]; first compound 10 µM) of the same cell line?
A: The relative viability was 0.685.

Q: And the relative viability ([2]; first compound 31.62 µM)?
A: Its relative viability is 0.664.

Q: What about the relative viability ([2]; first compound 100 µM) of the same cell line?
A: Its relative viability is 0.547.

Q: And the relative viability ([2]; first compound 316.23 µM)?
A: The relative viability was 0.49.

Q: What about the relative viability ([2]; first compound 1000 µM) of the same cell line?
A: Its relative viability is 0.762.

Q: And the relative viability ([3]; first compound 0.08 µM)?
A: Its relative viability is 0.0617.

Q: And the relative viability ([3]; first compound 0.253 µM)?
A: The relative viability was 0.0695.

Q: What about the relative viability ([3]; first compound 0.8 µM) of the same cell line?
A: The relative viability was 0.0575.

Q: And the relative viability ([3]; first compound 2.53 µM)?
A: Its relative viability is 0.0757.

Q: What about the relative viability ([3]; first compound 8 µM) of the same cell line?
A: Its relative viability is 0.0845.

Q: And the relative viability ([4]; first compound 0.08 µM)?
A: Its relative viability is 0.407.

Q: What about the relative viability ([4]; first compound 0.253 µM) of the same cell line?
A: Its relative viability is 0.444.

Q: And the relative viability ([4]; first compound 0.8 µM)?
A: Its relative viability is 0.344.

Q: What about the relative viability ([4]; first compound 2.53 µM) of the same cell line?
A: Its relative viability is 0.323.

Q: And the relative viability ([4]; first compound 8 µM)?
A: Its relative viability is 0.237.
